Measurements: the supplement of paper PMC13380429

What was measured:
Settings in all cases: 72 h
[1] = tested on: Calu-3; assay: cell viability relative to DMSO; higher = less toxic
[2] = tested on: HepG2; assay: as above
[3] = tested on: U2OS; assay: as above
[4] = tested on: Caco-2; assay: as above
[5] = tested on: Calu-3; assay: drug sensitivity score (DSS) for viability; higher = more toxic; extreme values may be limits of the assay
[6] = tested on: HepG2; assay: as above
[7] = tested on: U2OS; assay: as above
[8] = tested on: Caco-2; assay: as above
[9] = tested on: Calu-3; assay: relative viability EC50 (midpoint between 100% and the lowest measured viability); higher = less toxic
[10] = tested on: HepG2; assay: as above
[11] = tested on: U2OS; assay: as above
[12] = tested on: Caco-2; assay: as above
[13] = tested on: Vero E6; assay: drug sensitivity score (DSS) for viability; higher = more toxic; extreme values may be limits of the assay
[14] = tested on: Vero E6; assay: cell viability relative to DMSO; higher = less toxic

Row | Compound | cell viability ([1]; 1 nM) [%] | cell viability ([1]; 10 nM) [%] | cell viability ([1]; 100 nM) [%] | cell viability ([1]; 1000 nM) [%] | cell viability ([1]; 10000 nM) [%] | cell viability ([2]; 1 nM) [%] | cell viability ([2]; 10 nM) [%] | cell viability ([2]; 100 nM) [%] | cell viability ([2]; 1000 nM) [%] | cell viability ([2]; 10000 nM) [%] | cell viability ([3]; 1 nM) [%] | cell viability ([3]; 10 nM) [%] | cell viability ([3]; 100 nM) [%] | cell viability ([3]; 1000 nM) [%] | cell viability ([3]; 10000 nM) [%] | cell viability ([4]; 1 nM) [%] | cell viability ([4]; 10 nM) [%] | cell viability ([4]; 100 nM) [%] | cell viability ([4]; 1000 nM) [%] | cell viability ([4]; 10000 nM) [%] | drug sensitivity score [5] | drug sensitivity score [6] | drug sensitivity score [7] | drug sensitivity score [8] | relative viability EC50 [9] [µM] | relative viability EC50 [10] [µM] | relative viability EC50 [11] [µM] | relative viability EC50 [12] [µM] | drug sensitivity score [13] | cell viability ([14]; 1 nM) [%] | cell viability ([14]; 10 nM) [%] | cell viability ([14]; 100 nM) [%] | cell viability ([14]; 1000 nM) [%] | cell viability ([14]; 10000 nM) [%]
1 | Cc1cccc(NC(=O)CN2CCC(c3ccccn3)CC2)c1 | 110 | 101 | 109 | 108 | 98.1 | 108 | 103 | 97 | 102 | 101 | 98.9 | 97.9 | 94.7 | 98.1 | 93.9 | 98.7 | 101 | 95 | 91.3 | 93.9 | 0 | 0 | 0 | 0 | > 10 | > 10 | > 10 | > 10 |  |  |  |  |  | 
2 | COC(=O)C1=C(C)NC(C)=C(C(=O)OC(C)C)[C@@H]1c1cccc2nonc12 [isradipine] | 101 | 98.9 | 91.7 | 97.9 | 95.2 | 98.9 | 103 | 105 | 106 | 95.9 | 103 | 97.9 | 104 | 102 | 98.5 | 107 | 96.2 | 99.3 | 93.5 | 94.2 | 0 | 0 | 0 | 0 | > 10 | > 10 | > 10 | > 10 |  |  |  |  |  | 
3 | CCC(=O)NC[C@@H]1C[C@H]1c1cccc2c1CCO2 [tasimelteon] | 91.1 | 103 | 91.9 | 103 | 103 | 108 | 107 | 102 | 106 | 98.5 | 92.8 | 103 | 93.9 | 93.6 | 102 | 97.9 | 92.1 | 90.6 | 98 | 99.4 | 0 | 0 | 0 | 0 | > 10 | > 10 | > 10 | > 10 |  |  |  |  |  | 
4 | C[N+]1(C)[C@@H]2C[C@@H](OC(=O)[C@H](CO)c3ccccc3)C[C@H]1[C@@H]1O[C@@H]12 [methscopolamine] |  |  |  |  |  |  |  |  |  |  |  |  |  |  |  |  |  |  |  |  | 0 | 0 | 0 |  |  |  |  |  | 0 |  |  |  |  | 
5 | Cc1nc(N)sc1CCN [amthamine] | 98.2 | 97.3 | 105 | 109 | 109 | 104 | 105 | 106 | 122 | 99.4 |  |  |  |  |  | 96.3 | 95.3 | 87.4 | 92.4 | 96.5 | 0 | 0 |  | 0 | > 10 | > 10 |  | > 10 |  |  |  |  |  | 
6 | Nc1ncnc2c1c(-c1cccc(OCc3ccccc3)c1)cn2[C@H]1C[C@@H](CN2CCC2)C1 [NVP-AEW541] | 112 | 103 | 99.4 | 93.3 | 57.2 | 96.4 | 93.6 | 92.4 | 68.1 | 32.3 | 98.1 | 97.9 | 106 | 86.6 | 52.5 | 99.8 | 97 | 94.5 | 80.8 | 45.1 | 3.3 | 7.4 | 4.5 | 5.2 |  | 1 |  | 1.4 | 2.4 | 100 | 102 | 99 | 92.9 | 69.6
7 | CC(C)(C)C1CCc2c(sc(NC(=O)c3ccco3)c2C(=O)O)C1 (stereo not given) [CaCCinh-A01] | 91.2 | 99.5 | 103 | 96.4 | 99.6 | 115 | 90.8 | 103 | 87.2 | 69.3 | 98.8 | 101 | 96.2 | 97.1 | 98 | 102 | 103 | 97.1 | 97.8 | 82.2 | 0 | 3 | 0 | 0.7 | > 10 |  | > 10 | > 10 | 1.3 | 98.8 | 98.8 | 106 | 98.5 | 72.9
8 | OCc1ccccc1O[C@@H]1O[C@H](CO)[C@@H](O)[C@H](O)[C@H]1O [salicin] |  |  |  |  |  |  |  |  |  |  |  |  |  |  |  |  |  |  |  |  | 0 | 0 | 0 |  |  |  |  |  | 0 |  |  |  |  | 
9 | O=C(CCCN1CCC(O)(c2ccc(Br)cc2)CC1)c1ccc(F)cc1 [bromperidol] |  |  |  |  |  |  |  |  |  |  |  |  |  |  |  |  |  |  |  |  | 0 | 0.8 | 0 |  |  |  |  |  | 0 |  |  |  |  | 
10 | CN1CCN(c2cccc3[nH]c(=O)oc23)CC1 [pardoprunox] | 95.8 | 93.2 | 102 | 107 | 99.1 | 90.7 | 105 | 89.1 | 99.2 | 97.3 | 106 | 99.3 | 102 | 95.3 | 101 | 102 | 101 | 96.4 | 90.6 | 100 | 0 | 0 | 0 | 0 | > 10 | > 10 | > 10 | > 10 |  |  |  |  |  | 
11 | Cc1ncc([N+](=O)[O-])n1CC(C)O (stereo not given) [secnidazole] |  |  |  |  |  |  |  |  |  |  |  |  |  |  |  |  |  |  |  |  | 0.4 | 0 | 0 |  |  |  |  |  | 0 |  |  |  |  | 
12 | N#C/C(=C\c1ccc(O)c(O)c1)C(=O)NCCCCc1ccccc1 [AG-556] | 95.7 | 101 | 102 | 110 | 98.7 | 93.3 | 101 | 97.8 | 108 | 71.1 | 98.5 | 99 | 94.7 | 99 | 75.8 | 94 | 94.2 | 101 | 101 | 50.1 | 0 | 0.9 | 1 | 2.5 | > 10 |  | > 10 |  | 2.5 | 95.8 | 95.6 | 100 | 95.9 | 62.5
13 | CN(C)CCN1C(=O)c2cccc3cc(N)cc(c23)C1=O [amonafide] | 94.8 | 96.2 | 99.3 | 104 | 65.1 | 92.9 | 108 | 113 | 93.6 | 23.9 | 101 | 92.7 | 95 | 100 | 64.6 | 99.9 | 96.1 | 97.9 | 108 | 69.7 | 1.4 | 5.2 | 1.7 | 1 |  | 2.48 |  |  | 3.3 | 97.8 | 93.3 | 95.9 | 94.1 | 54.8
14 | CN1[C@@H]2CC[C@H]1C[C@@H](OC(=O)[C@H](CO)c1ccccc1)C2 [hyoscyamine] | 103 | 91.6 | 99.9 | 97.2 | 99.4 | 111 | 98.2 | 106 | 89.3 | 104 | 98.9 | 101 | 97.8 | 101 | 99.9 | 103 | 99.8 | 95 | 94.2 | 89.6 | 0 | 0 | 0 | 0 | > 10 | > 10 | > 10 | > 10 |  |  |  |  |  | 
15 | CO[C@H]1C[C@H](O[C@H]2[C@H](C)O[C@@H](O[C@@H]3/C(C)=C/C[C@@H]4C[C@@H](C[C@]5(C=C[C@H](C)[C@@H](C6CCCCC6)O5)O4)OC(=O)[C@@H]4C=C(C)[C@@H](O)[C@H]5OC/C(=C\C=C\[C@@H]3C)[C@]54O)C[C@@H]2OC)O[C@@H](C)[C@@H]1O [doramectin] | 102 | 95.4 | 105 | 93.8 | 75 | 112 | 104 | 98.1 | 108 | 44.9 | 98.1 | 95.7 | 92.6 | 88.5 | 56.6 | 102 | 92.9 | 93.9 | 96.8 | 62.5 | 1.8 | 2.5 | 3.7 | 2.3 | > 10 | 3.76 |  |  | 1.4 | 103 | 96.3 | 91.1 | 98.1 | 72.4
16 | CC(C)(C(=O)NCC(F)(F)C(F)(F)F)C(=O)N[C@@H]1C(=O)Nc2ccccc2-c2ccccc21 [RG4733] | 102 | 108 | 112 | 98.6 | 93.9 | 102 | 111 | 101 | 102 | 92.1 | 96.9 | 99.1 | 99.6 | 94.4 | 97.3 | 94.4 | 92.3 | 97.8 | 89.8 | 82.2 | 0 | 0 | 0 | 0.6 | > 10 | > 10 | > 10 | > 10 |  |  |  |  |  | 
17 | CO[C@H]1C[C@@H]2CC[C@@H](C)[C@@](O)(O2)C(=O)C(=O)N2CCCC[C@H]2C(=O)O[C@H]([C@H](C)C[C@@H]2CC[C@@H](O)[C@H](OC)C2)CC(=O)[C@H](C)/C=C(\C)[C@@H](O)[C@@H](OC)C(=O)[C@H](C)C[C@H](C)/C=C/C=C/C=C/1C [sirolimus] | 65.3 | 42.2 | 42.6 | 47.5 | 47.3 | 78.3 | 63.9 | 60.4 | 66.1 | 53.7 | 77 | 57.9 | 60.3 | 55.8 | 59.9 | 72.7 | 55.4 | 56.8 | 52 | 54.2 | 29 | 17.5 | 21.2 | 22.7 | < 0.001 |  |  |  | 17.5 | 92.3 | 69.4 | 58.6 | 55.9 | 60.6
18 | O=C(CCCl)NCc1ccccc1 [beclamide] |  |  |  |  |  |  |  |  |  |  |  |  |  |  |  |  |  |  |  |  | 0 | 0 | 0 |  |  |  |  |  | 0 |  |  |  |  | 
